According to patent publication US6340705B1, “Use of α-linolenic acid metabolites for treatment or prevention of cancer” (Monsanto Technology, LLC, priority 1999, dated 2002):
Marks after values point to notes of the source that are not given here.

Test system: not listed separately
Experiment: Metabolism in mice, time course analysis using radiolabeled fatty acids (mouse liver)
Conditions: mice on US17 diet, intraperitoneal 10 μCi, at 24 hours
Protocol: The method used was a time course study using ^14C-labeled fatty acids.
Mice were fed the US17 diet for a period of one month in order to achieve steady-state fatty acid metabolism. After achieving steady-state fatty acid metabolism, the mice were administered an intraperitoneal injection containing 10 μCi of ^14C-ALA, ^14C-SDA, ^14C-EPA OR ^14C-DHA. Mice were sacrificed 3 hours, 8 hours or 24 hours post-injection, and the total amount of ^14C-EPA, ^14C-DPA n-3 and ^14C-DHA was measured by argentation thin layer chromatography followed by direct electronic autoradiography, as described in Example 3.

order of metabolism to 14C-EPA + 14C-DPA n-3 + 14C-DHA in mouse liver (FIG. 6)	Compound
DHA=EPA>SDA>ALA	CC/C=C\C/C=C\C/C=C\C/C=C\C/C=C\C/C=C\CCC(=O)O [DHA, docosahexaenoic acid]

Test system: Min/+ mouse model of intestinal cancer
Experiment: Intestinal polyp formation in the Min/+ mouse model of intestinal cancer
Format: in vivo
Parameters: Avg. large intestine tumor size: unit not given here
Conditions: Min/+ mice, 10 g/day human equivalent dose
Protocol: The efficacy of select n-3 and n-6 polyunsaturated fatty acids was evaluated in the Min/+ mouse model of intestinal cancer. The following fatty acid ethyl esters were tested for their effect on intestinal polyp formation: 1) ALA-EE; 2) SDA-EE; 2) EPA-EE; 4) DHA-EE; 5) GLA-EE ([…], 18:3 n-6); and 6) CLA-EE (conjugated linoleic acid; c9t11-18:2 (77%)+c9c11-18:2 (18%)+other isomers (5%)).
These fatty acid ethyl esters were added to the US17 diet to provide 10 g/day human equivalent dose (3% wt.). The NSAID, sulindac (320 ppm), served as the positive control. In order to maintain a 17% fat (37 en%) content in the US17 diet, oleic acid (18:1 n-9) was removed from the US17 diet in an amount equal to the amount of the fatty acid ethyl ester that was added. Mice were received at approximately five weeks of age and were fed the test diets upon receipt. After seven weeks on the respective test diet, the mice were sacrificed and the intestinal polyps were counted and measured.

Compound	effectiveness in inhibiting polyp formation and development in the large intestine
CC/C=C\C/C=C\C/C=C\C/C=C\C/C=C\C/C=C\CCC(=O)O [DHA, docosahexaenoic acid]	no efficacy
α-linolenic acid [ALA]	marginally efficacious

Same assay, conditions: Min/+ mice, 10 g/day human equivalent dose; differences not significant

Compound	effect on polyp number relative to the US17 control
CCCCC/C=C\C/C=C\C/C=C\CCCCC(=O)O [GLA, γ-linolenic acid]	appeared to increase polyp number
conjugated linoleic acid [CLA]	appeared to increase polyp number

Same assay, conditions: Min/+ mice; 10 g/day human equivalent dose (3% wt.) or sulindac 320 ppm; seven weeks

Compound	Total small intestine tumors/group
CC/C=C\C/C=C\C/C=C\C/C=C\C/C=C\C/C=C\CCC(=O)O [DHA, docosahexaenoic acid]	280
CC/C=C\C/C=C\C/C=C\C/C=C\C/C=C\CCCC(=O)O [EPA, eicosapentaenoic acid]	176
CCCCC/C=C\C/C=C\C/C=C\CCCCC(=O)O [GLA, γ-linolenic acid]	421
CC1=C(CC(=O)O)c2cc(F)ccc2/C1=C\c1ccc([S+](C)[O-])cc1 (stereo not drawn) [Sulindac, sulindac]	29
conjugated linoleic acid [CLA]	409
α-linolenic acid [ALA]	364

Same assay, conditions: Min/+ mice; 10 g/day human equivalent dose (3% wt.) or sulindac 320 ppm; seven weeks; mean ± SEM

Compound	Avg. large intestine tumors/mouse	Avg. small intestine tumor size	Avg. small intestine tumors/mouse
CC/C=C\C/C=C\C/C=C\C/C=C\C/C=C\C/C=C\CCC(=O)O [DHA, docosahexaenoic acid]	1.8 ± 0.4^a	1.16 ± 0.04^ab mm	28.0 ± 5.6^bc
CC/C=C\C/C=C\C/C=C\C/C=C\C/C=C\CCCC(=O)O [EPA, eicosapentaenoic acid]	0.9 ± 0.3^abcd	1.05 ± 0.03^b mm	17.6 ± 2.2^cd
CCCCC/C=C\C/C=C\C/C=C\CCCCC(=O)O [GLA, γ-linolenic acid]	1.2 ± 0.4^abc	1.30 ± 0.04^ab mm	46.8 ± 7.1^a
CC1=C(CC(=O)O)c2cc(F)ccc2/C1=C\c1ccc([S+](C)[O-])cc1 (stereo not drawn) [Sulindac, sulindac]	0.2 ± 0.2^cd	1.25 ± 0.29^ab mm	3.2 ± 1.1^d
conjugated linoleic acid [CLA]	1.1 ± 0.4^abcd	1.24 ± 0.03^ab mm	45.4 ± 8.2^a
α-linolenic acid [ALA]	0.8 ± 0.3^bcd	1.23 ± 0.04^ab mm	36.4 ± 6.3^ab

Same assay, conditions: Min/+ mice; 10 g/day human equivalent dose (3% wt.) or sulindac 320 ppm; seven weeks; mean ± SEM; only animals bearing colonic tumors

Compound	Avg. large intestine tumor size
CC/C=C\C/C=C\C/C=C\C/C=C\C/C=C\C/C=C\CCC(=O)O [DHA, docosahexaenoic acid]	3.01 ± 0.20^a
CC/C=C\C/C=C\C/C=C\C/C=C\C/C=C\CCCC(=O)O [EPA, eicosapentaenoic acid]	2.48 ± 0.39^ab
CCCCC/C=C\C/C=C\C/C=C\CCCCC(=O)O [GLA, γ-linolenic acid]	2.57 ± 0.30^ab
CC1=C(CC(=O)O)c2cc(F)ccc2/C1=C\c1ccc([S+](C)[O-])cc1 (stereo not drawn) [Sulindac, sulindac]	2.00 ± 0.00^ab
conjugated linoleic acid [CLA]	3.03 ± 0.52^a
α-linolenic acid [ALA]	2.75 ± 0.46^ab

Same assay, conditions: Min/+ mice; 10 g/day human equivalent dose (3% wt.) or sulindac 320 ppm; seven weeks; mean ± SEM; tumor number × tumor size

Compound	Avg. large intestine tumor load	Avg. small intestine tumor load
CC/C=C\C/C=C\C/C=C\C/C=C\C/C=C\C/C=C\CCC(=O)O [DHA, docosahexaenoic acid]	5.06 ± 0.85^a mm	33.15 ± 8.09^bc mm
CC/C=C\C/C=C\C/C=C\C/C=C\C/C=C\CCCC(=O)O [EPA, eicosapentaenoic acid]	2.25 ± 0.75^bcd mm	
CCCCC/C=C\C/C=C\C/C=C\CCCCC(=O)O [GLA, γ-linolenic acid]	3.25 ± 1.34^abc mm	61.62 ± 10.36^a mm
CC1=C(CC(=O)O)c2cc(F)ccc2/C1=C\c1ccc([S+](C)[O-])cc1 (stereo not drawn) [Sulindac, sulindac]	0.44 ± 0.29^cd mm	3.64 ± 1.12^d mm
conjugated linoleic acid [CLA]	3.47 ± 1.29^ab mm	57.84 ± 11.70^a mm
α-linolenic acid [ALA]	2.15 ± 0.83^bcd mm	45.67 ± 8.66^ab mm

Same assay, conditions: Min/+ mice; fatty acid ethyl ester 10 g/day human equivalent dose (3% wt.) in US17 diet or sulindac 320 ppm; seven weeks

Compound	Total large intestine tumors/group	Total large intestine tumors/group, figure in brackets (animals bearing tumors/animals in group)
CC/C=C\C/C=C\C/C=C\C/C=C\C/C=C\C/C=C\CCC(=O)O [DHA, docosahexaenoic acid]	18	
CC/C=C\C/C=C\C/C=C\C/C=C\C/C=C\CCCC(=O)O [EPA, eicosapentaenoic acid]	9	
CCCCC/C=C\C/C=C\C/C=C\CCCCC(=O)O [GLA, γ-linolenic acid]	11	6/9
CC1=C(CC(=O)O)c2cc(F)ccc2/C1=C\c1ccc([S+](C)[O-])cc1 (stereo not drawn) [Sulindac, sulindac]	2	2/9
conjugated linoleic acid [CLA]	10	5/9
α-linolenic acid [ALA]	8	5/10

Same assay, conditions: Min/+ mice; large and small intestine; 10 g/day human equivalent dose (3% wt.) or sulindac 320 ppm; seven weeks; mean ± SEM

Compound	Total Avg. overall tumor load	Total Avg. overall tumor size	Total Avg. tumors/mouse
CC/C=C\C/C=C\C/C=C\C/C=C\C/C=C\C/C=C\CCC(=O)O [DHA, docosahexaenoic acid]	35.60 ± 7.10^bc mm	1.20 ± 0.04^bc mm	29.8 ± 5.9^bc
CC/C=C\C/C=C\C/C=C\C/C=C\C/C=C\CCCC(=O)O [EPA, eicosapentaenoic acid]	20.28 ± 2.23^cd mm	1.11 ± 0.04^cd mm	18.5 ± 2.2^a
CCCCC/C=C\C/C=C\C/C=C\CCCCC(=O)O [GLA, γ-linolenic acid]	64.84 ± 11.05^a mm	1.33 ± 0.04^a mm	48.0 ± 7.4^a
CC1=C(CC(=O)O)c2cc(F)ccc2/C1=C\c1ccc([S+](C)[O-])cc1 (stereo not drawn) [Sulindac, sulindac]	3.64 ± 1.27^d mm	1.04 ± 0.08^d mm	3.4 ± 1.2^d
conjugated linoleic acid [CLA]	61.30 ± 12.41^a mm	1.28 ± 0.04^ab mm	46.6 ± 8.3^a
α-linolenic acid [ALA]	45.97 ± 8.88^ab mm	1.21 ± 0.03^bc mm	37.2 ± 6.6^ab

Test system: HepG2 cells
Experiment: Uptake of 14C-ALA, 14C-SDA and 14C-EPA by HepG2 cells
Format: in vitro ADME
Conditions: 20 μM complexed to fatty acid free BSA, within the first six hours of incubation
Protocol: To a culture medium containing HepG2 cells was added 20 μM ^14C-ALA, ^14C-SDA or ^14C-EPA complexed to fatty acid free BSA. The amount of ^14C-ALA, ^14C-SDA or ^14-EPA EPA Taken up by the HepG2 cells was measured 6 hours, 24 hours and 48 hours after addition of the fatty acid. A scintillation counter was used to measure the total amount of radioactivity in the HepG2 cells and the amount remaining in the medium.

radiolabeled fatty acid taken up by the cells	Compound
Approximately 95%	CC/C=C\C/C=C\C/C=C\CCCCCCCC(=O)O [ALA, α-linolenic acid]
Approximately 95%	CC/C=C\C/C=C\C/C=C\C/C=C\C/C=C\CCCC(=O)O [EPA, eicosapentaenoic acid]

Same assay, conditions: 20 μM, 6, 24 and 48 hours

uptake by HepG2 cells, comparison (FIG. 1)	Compound
taken up equally	CC/C=C\C/C=C\C/C=C\CCCCCCCC(=O)O [ALA, α-linolenic acid]
taken up equally	CC/C=C\C/C=C\C/C=C\C/C=C\C/C=C\CCCC(=O)O [EPA, eicosapentaenoic acid]

Test system: not given
Experiment: not given
Format: in vivo, rats
Conditions: rat, in vivo
Excerpt: (§1) Mice were fed a US17 diet containing α-linolenic acid ethyl ester (ALA-EE), stearidonic acid ethyl ester (SDA-EE), eicosapentaenoic acid ethyl ester (EPA-EE), or docosahexaenoic acid ethyl ester (DHA-EE) in an amount equivalent to a human western diet containing 1, 3 or 10 g/day of the fatty acid (g/day human equivalent dose). In order to maintain a 17% fat (37 en %) content in the US17 diet, oleic acid (18:1 n-9), as an oleic acid cassette, was removed from the US17 diet in an amount equal to the amount of fatty acid ester that was added. Oleic acid was selected as the replacement fatty acid because literature reports indicate that oleic acid is neutral with respect to inflammation and cancer.
(§2) After one month on the respective US17-based diets, the mice were sacrificed and the fatty acid composition of each of their livers was analyzed by gas chromatography. The results of these analyses are pressured in FIG. 8.
The method used was as described in Example 6 except that rats were used in place of mice.

sum of long chain n-3 PUFAs (EPA+DPA n-3, and DHA) in liver tissue, rank order of dose dependent accumulation (FIG. 9)	Compound
DHA-EE>EPA-EE>SDA-EE>ALA-EE	CC/C=C\C/C=C\C/C=C\CCCCCCCC(=O)OCC [ALA-EE, α-linolenic acid ethyl ester]
DHA-EE>EPA-EE>SDA-EE>ALA-EE	CC/C=C\C/C=C\C/C=C\C/C=C\C/C=C\C/C=C\CCC(=O)OCC [DHA-EE, docosahexaenoic acid ethyl ester]
DHA-EE>EPA-EE>SDA-EE>ALA-EE	CC/C=C\C/C=C\C/C=C\C/C=C\C/C=C\CCCC(=O)OCC [EPA-EE, eicosapentaenoic acid ethyl ester]
DHA-EE>EPA-EE>SDA-EE>ALA-EE	CC/C=C\C/C=C\C/C=C\C/C=C\CCCCC(=O)OCC [SDA-EE, stearidonic acid ethyl ester]

Test system: HepG2 cells
Experiment: Metabolism of radiolabeled fatty acids to long chain n-3 PUFAs (EPA, DHA) in HepG2 cells
Format: in vitro ADME
Conditions: 20 μM
Protocol: HepG2 cells were allowed to take up ^14C-ALA or ^14C-SDA as described in Example 2. The total amount of ^14C-EPA, ^14C-DPA and ^14C-DHA present in the HepG2 cells was measured 6 hours, 24 hours and 48 hours after addition of the fatty acid by argentation thin layer chromatography (TLC). The amount of each fatty acid present as a band on the TLC plate was quantified by electronic autoradiography using an Instant Imager supplied by Packard (Meriden, Conn.).
HepG2 cells were allowed to take up ^14C-ALA, ^14C-SDA or ^14C-EPA as described in Example 2. The amount of ^14C-EPA and ^14C-DHA present in the HepG2 cells was measured 6 hours, 24 hours and 48 hours after addition of the fatty acids by argentation thin layer chromatography (TLC) as described in Example 3. The amount of ^14C-EPA and ^14C-DHA present as bands on the TLC plate were quantified by electronic autoradiography using an Instant Imager as described in Example 3.

amount of EPA that remained after incubation with EPA itself	Compound
63%	CC/C=C\C/C=C\C/C=C\C/C=C\C/C=C\CCCC(=O)O [EPA, eicosapentaenoic acid]

Test system: not given
Experiment: not given
Parameters: species or system Mice
Conditions: mouse, in vivo
Excerpt: The method used was a non-radioactive, dose response, metabolic end-point study.
as §1, §2

sum of long chain n-3 PUFAs (EPA+DPA n-3+DHA) in liver tissue, rank order of dose dependent increase (FIG. 8)	Compound
DHA-EE>EPA-EE>SDA-EE>ALA-EE	CC/C=C\C/C=C\C/C=C\CCCCCCCC(=O)OCC [ALA-EE, α-linolenic acid ethyl ester]
DHA-EE>EPA-EE>SDA-EE>ALA-EE	CC/C=C\C/C=C\C/C=C\C/C=C\C/C=C\C/C=C\CCC(=O)OCC [DHA-EE, docosahexaenoic acid ethyl ester]
DHA-EE>EPA-EE>SDA-EE>ALA-EE	CC/C=C\C/C=C\C/C=C\C/C=C\C/C=C\CCCC(=O)OCC [EPA-EE, eicosapentaenoic acid ethyl ester]
DHA-EE>EPA-EE>SDA-EE>ALA-EE	CC/C=C\C/C=C\C/C=C\C/C=C\CCCCC(=O)OCC [SDA-EE, stearidonic acid ethyl ester]
